Where “and” joins values, the source holds several entries; their conditions need not be identical. Equal values may be shown once. Inconclusive results and toxic doses are left out. No stated cut-off is given here; in the data, active means T/C of 150% or more; inactive means T/C below 125%.
Tested on: L1210 leukemia ip in BDF1 mice, survival T/C
Test: NCI In Vivo Anticancer Drug Screen. Data for tumor model L1210 Leukemia (intraperitoneal) in B6D2F1 (BDF1) mice
Conditions: endpoint: mean survival time, higher = longer survival
Summary of the method: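 Tumor cells were implanted, animals were treated, and survival was followed. The result divides the treated measurement by the vehicle-control measurement.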

[1] = dose: 100.0 mg/kg/injection, schedule: Q01DX001 (ip), vehicle: saline
[2] = dose: 100.0 mg/kg/injection, schedule: Q04DX003 (ip), vehicle: saline
[3] = dose: 200.0 mg/kg/injection, schedule: Q01DX001 (ip), vehicle: saline
[4] = dose: 200.0 mg/kg/injection, schedule: Q04DX003 (ip), vehicle: saline
[5] = dose: 400.0 mg/kg/injection, schedule: Q01DX001 (ip), vehicle: saline
[6] = dose: 400.0 mg/kg/injection, schedule: Q04DX003 (ip), vehicle: saline
[7] = dose: 100.0 mg/kg/injection, schedule: Q01DX001 (ip), vehicle: Klucel (hydroxypropylcellulose) (HPC)
[8] = dose: 200.0 mg/kg/injection, schedule: Q01DX001 (ip), vehicle: Klucel (hydroxypropylcellulose) (HPC)
[9] = dose: 400.0 mg/kg/injection, schedule: Q01DX001 (ip), vehicle: Klucel (hydroxypropylcellulose) (HPC)
[10] = dose: 100.0 mg/kg/injection, schedule: Q01DX009 (ip), vehicle: Klucel (hydroxypropylcellulose) (HPC)
[11] = dose: 200.0 mg/kg/injection, schedule: Q01DX009 (ip), vehicle: Klucel (hydroxypropylcellulose) (HPC)
[12] = dose: 400.0 mg/kg/injection, schedule: Q01DX009 (ip), vehicle: Klucel (hydroxypropylcellulose) (HPC)
[13] = dose: 100.0 mg/kg/injection, schedule: Q01DX009 (ip), vehicle: saline with Tween-80
[14] = dose: 200.0 mg/kg/injection, schedule: Q01DX009 (ip), vehicle: saline with Tween-80
[15] = dose: 100.0 mg/kg/injection, schedule: Q04DX003 (ip), vehicle: Klucel (hydroxypropylcellulose) (HPC)
[16] = dose: 200.0 mg/kg/injection, schedule: Q04DX003 (ip), vehicle: Klucel (hydroxypropylcellulose) (HPC)
[17] = dose: 400.0 mg/kg/injection, schedule: Q04DX003 (ip), vehicle: Klucel (hydroxypropylcellulose) (HPC)
[18] = dose: 100.0 mg/kg/injection, schedule: Q01DX001 (ip), vehicle: carboxymethylcellulose (CMC)
[19] = dose: 200.0 mg/kg/injection, schedule: Q01DX001 (ip), vehicle: carboxymethylcellulose (CMC)
[20] = dose: 400.0 mg/kg/injection, schedule: Q01DX001 (ip), vehicle: carboxymethylcellulose (CMC)

Measured: T/C

CCOC(=O)c1c(O)[nH]c(=O)c(Br)c1C
inactive: [1] 109 % of control | [2] 89 % of control | [3] 120 % of control | [4] 89 % of control | [5] 117 % of control | [6] 90 % of control

O=C(NCCc1ccc([N+](=O)[O-])cc1)c1ccc(S(=O)(=O)F)cc1
inactive: [7] 103 % of control | [8] 94 % of control | [9] 103 % of control

NC(=S)Nc1ccc(Cc2ccc(NC(N)=S)cc2)cc1
inactive: [10] 98 % of control | [11] 91 % of control | [12] 88 % of control

CC(O)C/C=N\N=C(N)N (stereo unspecified)
inactive: dose: 15.0 mg/kg/injection, schedule: Q01DX Z (ip), vehicle: methylcellulose (MC) 95 % of control | dose: 15.0 mg/kg/injection, schedule: Q01DX Z (oral), vehicle: methylcellulose (MC) 101 % of control | dose: 30.0 mg/kg/injection, schedule: Q01DX Z (oral), vehicle: methylcellulose (MC) 88 % of control | dose: 60.0 mg/kg/injection, schedule: Q01DX Z (oral), vehicle: methylcellulose (MC) 94 % of control | dose: 120.0 mg/kg/injection, schedule: Q01DX Z (oral), vehicle: methylcellulose (MC) 88 % of control

N/C(=N\O)c1cccnc1
inactive: dose: 25.0 mg/kg/injection, schedule: Q01DX009 (ip), vehicle: water 98 % of control | dose: 50.0 mg/kg/injection, schedule: Q01DX009 (ip), vehicle: water 106 % of control | [13] 100 % of control | dose: 100.0 mg/kg/injection, schedule: Q01DX009 (ip), vehicle: water 101 % of control | dose: 100.0 mg/kg/injection, schedule: Q04DX003 (ip), vehicle: water 100 % of control | [14] 96 % of control | dose: 200.0 mg/kg/injection, schedule: Q01DX009 (ip), vehicle: water 97 % of control | dose: 200.0 mg/kg/injection, schedule: Q04DX003 (ip), vehicle: water 107 % of control

CCCCCC(O)CCCCC
inactive: dose: 100.0 mg/kg/injection, schedule: Q01DX009 (ip), vehicle: saline 102 % of control | dose: 200.0 mg/kg/injection, schedule: Q01DX009 (ip), vehicle: saline 107 % of control | dose: 400.0 mg/kg/injection, schedule: Q01DX009 (ip), vehicle: saline 113 % of control

Cc1c(Cl)cccc1CC(Cl)C#N (stereo unspecified)
inactive: dose: 12.5 mg/kg/injection, schedule: Q01DX009 (ip), vehicle: saline with Tween-80 97 % of control | dose: 25.0 mg/kg/injection, schedule: Q01DX009 (ip), vehicle: saline with Tween-80 90 % of control | dose: 50.0 mg/kg/injection, schedule: Q01DX009 (ip), vehicle: saline with Tween-80 87 % of control | [13] 89 % of control

O=C1C=CC(=O)N1c1ccccc1Cl (tested in a mixture with another compound)
inactive: dose: 100.0 mg/kg/injection, schedule: Q04DX003 (ip), vehicle: acetone 107 % of control | dose: 200.0 mg/kg/injection, schedule: Q04DX003 (ip), vehicle: acetone 100 % of control | dose: 400.0 mg/kg/injection, schedule: Q04DX003 (ip), vehicle: acetone 96 % of control

Cc1cc(C)c2c(c1)CC2NC(=O)Cc1ccccc1 (stereo unspecified)
inactive: dose: 25.0 mg/kg/injection, schedule: Q04DX002 (ip), vehicle: Klucel (hydroxypropylcellulose) (HPC) 116 % of control | dose: 50.0 mg/kg/injection, schedule: Q04DX002 (ip), vehicle: Klucel (hydroxypropylcellulose) (HPC) 89 % of control | dose: 100.0 mg/kg/injection, schedule: Q04DX002 (ip), vehicle: Klucel (hydroxypropylcellulose) (HPC) 92 % of control

CCCCCCCC/C=C\CCCCCCCC(=O)OCCCCCCCCCCCCCCCC
inactive: [10] 104 % of control | [11] 96 % of control | [12] 93 % of control

CCS(=O)(=O)c1ccc(NC(=O)OC2CCCC2)cc1
inactive: dose: 100.0 mg/kg/injection, schedule: Q01DX001 (ip), vehicle: other 100 % of control | dose: 200.0 mg/kg/injection, schedule: Q01DX001 (ip), vehicle: other 96 % of control | dose: 400.0 mg/kg/injection, schedule: Q01DX001 (ip), vehicle: other 89 % of control

CCCC1(CCC)c2ccccc2C(=O)c2ccccc21
inactive: [7] 105 % of control | [15] 100 % of control | [8] 96 % of control | [16] 96 % of control | [9] 105 % of control | [17] 95 % of control

CCCCNC(=O)C1C2CC3OC(=O)C1C3C2 (stereo unspecified)
inactive: dose: 12.5 mg/kg/injection, schedule: Q04DX003 (ip), vehicle: saline 89 % of control | dose: 25.0 mg/kg/injection, schedule: Q04DX003 (ip), vehicle: saline 95 % of control | dose: 50.0 mg/kg/injection, schedule: Q04DX003 (ip), vehicle: saline 100 % of control | [2] 95 % of control | [4] 98 % of control | [6] 101 % of control

OCCCNc1nc2c(Cl)cc(Cl)cc2c2ccccc12
inactive: [10] 104 % of control | [15] 107 % of control | [11] 94 % of control | [16] 108 % of control | [17] 95 % of control

c1ccc2c(c1)OC1OC2Oc2ccccc21
inactive: [1] 97 % of control | dose: 177.0 mg/kg/injection, schedule: Q01DX001 (ip), vehicle: saline 104 % of control and 92 % of control | [3] 101 % of control | dose: 266.0 mg/kg/injection, schedule: Q01DX001 (ip), vehicle: saline 93 % of control and 94 % of control | [5] 88 % of control and 90 % of control | dose: 600.0 mg/kg/injection, schedule: Q01DX001 (ip), vehicle: saline 86 % of control and 92 % of control

O=C1C=C(C(=O)O)C(c2ccccc2)CC1 (stereo unspecified)
inactive: [10] 88 % of control | [15] 100 % of control | [11] 95 % of control | [16] 95 % of control | [12] 98 % of control | [17] 98 % of control

CCc1ccc(NS(=O)(=O)c2ccc3ccccc3c2)cc1
inactive: [10] 107 % of control | [11] 107 % of control | [12] 98 % of control

Nc1ccc2c(O)c(N=Nc3ccc4c(O)cc(S(=O)(=O)O)cc4c3)c(S(=O)(=O)O)cc2c1
inactive: [10] 100 % of control | [2] 96 % of control | [11] 112 % of control | [4] 100 % of control | [12] 88 % of control | [6] 94 % of control

O=C(CNc1ccccc1)c1ccc(O)c(C(=O)O)c1 (tested in a mixture with another compound)
inactive: [15] 91 % of control | [16] 90 % of control | [17] 93 % of control

CCCCCCCCCCCCCCCCS(=O)(=O)N/N=C/c1ccc2c(c1)OCO2
inactive: [18] 101 % of control | [19] 98 % of control | [20] 104 % of control

O=C(Oc1ccc(Cl)cc1)c1ccc(C(=O)Oc2ccc(Cl)cc2)cc1
inactive: dose: 75.0 mg/kg/injection, schedule: Q01DX009 (ip), vehicle: saline sonified 93 % of control | [15] 100 % of control | dose: 150.0 mg/kg/injection, schedule: Q01DX009 (ip), vehicle: saline sonified 91 % of control | [16] 97 % of control | dose: 300.0 mg/kg/injection, schedule: Q01DX009 (ip), vehicle: saline sonified 87 % of control | [17] 92 % of control

COC(=O)c1cc(C(=O)OC)c(C(=O)OC)cc1C(=O)OC
inactive: [13] 101 % of control | [14] 98 % of control | dose: 400.0 mg/kg/injection, schedule: Q01DX009 (ip), vehicle: saline with Tween-80 98 % of control

CCCCCCCCP(=O)(CCCCCCCC)CCCCCCCC
inactive: dose: 50.0 mg/kg/injection, schedule: Q01DX001 (ip), vehicle: carboxymethylcellulose (CMC) 95 % of control | [18] 95 % of control | [19] 95 % of control | [20] 101 % of control
